Data taken from the supplement of paper PMC4977894.
± gives the standard deviation of the averaged measurements.

Legend:
[1] = system: Homo sapiens (human subject panel, olfactory perception); assay: perceived odor familiarity rating (rating 0-100); higher = more familiar
Outline: (§1)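 Stimuli were molecules diluted in paraffin oil at high and low concentrations, with 1 mL of each sniffed in randomized order across ten visits of 100 stimuli. Participants were 55 healthy humans aged 18–50, excluding the six lowest performers. Subjects who smelled a stimulus moved a computerized slider away from its starting point of 50, and positions were rescaled to 0–100. Familiarity, intensity and pleasantness are each reported as an average over subjects.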

[2] = system: Homo sapiens (human subject panel, olfactory perception); assay: perceived odor intensity rating (rating 0-100); higher = stronger perceived smell
Outline: as §1

[3] = system: Homo sapiens (human subject panel, olfactory perception); assay: perceived odor pleasantness rating (rating 0-100); higher = more pleasant
Outline: as §1

[4] = odor dilution in paraffin oil: 1/10
[5] = odor dilution in paraffin oil: 1/1,000
[6] = odor dilution in paraffin oil: 1/100,000
[7] = odor dilution in paraffin oil: 1/10,000,000

| SMILES | perceived odor familiarity rating [1, 4] | perceived odor familiarity rating [1, 5] | perceived odor intensity rating [2, 4] | perceived odor intensity rating [2, 5] | perceived odor pleasantness rating [3, 4] | perceived odor pleasantness rating [3, 5] | perceived odor familiarity rating [1, 6] | perceived odor intensity rating [2, 6] | perceived odor pleasantness rating [3, 6] | perceived odor familiarity rating [1, 7] | perceived odor intensity rating [2, 7] | perceived odor pleasantness rating [3, 7] |
| --- | --- | --- | --- | --- | --- | --- | --- | --- | --- | --- | --- | --- |
| O=Cc1ccc2c(c1)OCO2 [piperonal] | 64.5 ± 27 | 54.6 ± 30 | 69.3 ± 22 | 42.5 ± 29 | 70.9 ± 23 | 72 ± 20 |  |  |  |  |  |  |
| CSCCO [2-(Methylthio)ethanol] |  | 53.8 ± 34 |  | 77.7 ± 23 |  | 34.1 ± 31 | 37.4 ± 31 | 32.3 ± 29 | 40 ± 18 |  |  |  |
| COc1nccnc1C [2-Methoxy-3-methylpyrazine] |  | 63 ± 31 |  | 87.9 ± 13 |  | 34.3 ± 34 | 64.6 ± 31 | 79.5 ± 17 | 52.6 ± 31 |  |  |  |
| COc1cc(C(C)=O)ccc1O [Acetovanillone] | 47.6 ± 29 | 41 ± 30 | 64 ± 28 | 35 ± 32 | 45.7 ± 25 | 55.1 ± 21 |  |  |  |  |  |  |
| CCCCCCCCCCCCO [Lauryl alcohol] | 50.1 ± 29 | 32 ± 30 | 64.6 ± 28 | 24.8 ± 31 | 35.8 ± 25 | 43 ± 26 |  |  |  |  |  |  |
| NCCc1ccccc1 [Phenethylamine] |  | 46.8 ± 34 |  | 62.9 ± 34 |  | 29.1 ± 28 | 38.8 ± 26 | 22.8 ± 26 | 48 ± 25 |  |  |  |
| CCCCCCOC(=O)c1ccccc1 [Hexyl benzoate] | 47.5 ± 28 | 37.8 ± 28 | 69.5 ± 25 | 40.7 ± 33 | 34.7 ± 25 | 37.4 ± 27 |  |  |  |  |  |  |
| CC(O)C(C)S (stereo not given) [2-Mercapto-3-butanol] |  |  |  |  |  |  | 41.6 ± 32 | 45.9 ± 32 | 40 ± 26 | 37 ± 26 | 30.2 ± 30 | 50.2 ± 23 |
| CC(C)=CCCC(C)CCO (single isomer, unassigned; (-)) [(-)-citronellol] |  | 57.9 ± 31 |  | 71.5 ± 27 |  | 53.5 ± 30 | 49.6 ± 28 | 41.6 ± 33 | 61.3 ± 22 |  |  |  |
| CCCCC/C=C/CO [trans-2-Octen-1-ol] |  | 46.4 ± 32 |  | 69.6 ± 26 |  | 36.5 ± 28 | 31 ± 31 | 27.6 ± 28 | 50.8 ± 22 |  |  |  |
| CC1=C(O)C(=O)OC1C (stereo not given) [4,5-Dimethyl-3-hydroxy-2,5-dihydrofuran-2-one] |  |  |  |  |  |  | 64.4 ± 25 | 72.6 ± 21 | 59.5 ± 29 | 42.7 ± 32 | 41.8 ± 30 | 46.1 ± 26 |
| COc1cc(C)ccc1O [2-Methoxy-4-methylphenol] |  |  |  |  |  |  | 53.6 ± 30 | 60.2 ± 27 | 39.6 ± 22 | 37.5 ± 32 | 27 ± 29 | 43.9 ± 23 |
| CCCCCCCC(=O)O [Octanoic acid] |  | 52.1 ± 33 |  | 68.6 ± 26 |  | 26.6 ± 19 | 45.3 ± 32 | 49.5 ± 33 | 35.2 ± 20 |  |  |  |
| CCCOC(=O)CCC [propyl butyrate] |  | 52.5 ± 27 |  | 64.7 ± 27 |  | 42.5 ± 27 | 39.4 ± 27 | 36.7 ± 31 | 33.6 ± 25 |  |  |  |
| COc1cccc(C=O)c1 [m-Anisaldehyde] |  | 47.4 ± 29 |  | 48.7 ± 31 |  | 53 ± 24 | 41.3 ± 30 | 12.2 ± 19 | 54 ± 25 |  |  |  |
| CC(=O)OC1CC2CCC1(C)C2(C)C (stereo not given) [Bornyl acetate] |  | 44.2 ± 29 |  | 36.1 ± 30 |  | 45.2 ± 22 | 28.9 ± 26 | 29.9 ± 28 | 45.7 ± 24 |  |  |  |
| C=CC(O)CC (stereo not given) [1-Penten-3-ol] |  | 43 ± 35 |  | 53 ± 32 |  | 40.7 ± 29 | 34.7 ± 24 | 31.3 ± 32 | 43.3 ± 22 |  |  |  |
| C[C@H](N)C(=O)O [L-Alanine] | 40.9 ± 32 | 23.8 ± 22 | 31.9 ± 30 | 14.7 ± 22 | 55.7 ± 28 | 45.9 ± 20 |  |  |  |  |  |  |

| SMILES | perceived odor familiarity rating [1, 4] | perceived odor familiarity rating [1, 5] | perceived odor intensity rating [2, 4] | perceived odor intensity rating [2, 5] | perceived odor pleasantness rating [3, 4] | perceived odor pleasantness rating [3, 5] | perceived odor familiarity rating [1, 6] | perceived odor intensity rating [2, 6] | perceived odor pleasantness rating [3, 6] | perceived odor familiarity rating [1, 7] | perceived odor intensity rating [2, 7] | perceived odor pleasantness rating [3, 7] |
| --- | --- | --- | --- | --- | --- | --- | --- | --- | --- | --- | --- | --- |
| CCCC(C)O (stereo not given) [2-pentanol] |  | 41.8 ± 30 |  | 50.2 ± 34 |  | 35.5 ± 26 | 38.9 ± 31 | 25.7 ± 23 | 42.6 ± 21 |  |  |  |
| N[C@@H](Cc1c[nH]cn1)C(=O)O [L-Histidine] | 44.2 ± 29 | 28.5 ± 28 | 53.2 ± 34 | 19.9 ± 24 | 34.6 ± 26 | 44.3 ± 26 |  |  |  |  |  |  |
| CCCCCC/C=C/C(C)=O [3-Decen-2-one] |  | 42.5 ± 28 |  | 65.4 ± 25 |  | 33.9 ± 22 | 27.1 ± 21 | 21.6 ± 23 | 46.8 ± 18 |  |  |  |
| CCO [ethanol] |  | 41.4 ± 31 |  | 19.5 ± 28 |  | 60.9 ± 23 | 34.1 ± 28 | 14.2 ± 18 | 49.6 ± 23 |  |  |  |
| CCCCC(CC)COC(C)=O (stereo not given) [2-ethylhexyl acetate] |  | 38.6 ± 29 |  | 44.4 ± 32 |  | 42 ± 22 | 32.7 ± 29 | 24.6 ± 31 | 51.3 ± 22 |  |  |  |
| CC=O [acetaldehyde] |  | 37.4 ± 29 |  | 40.5 ± 31 |  | 45 ± 22 | 41.4 ± 31 | 21.8 ± 26 | 54 ± 24 |  |  |  |
| CCCCC(=O)OCC [Ethyl Valerate] |  | 67.1 ± 33 |  | 75.2 ± 22 |  | 71.4 ± 26 | 58.9 ± 30 | 50.6 ± 28 | 73.6 ± 20 |  |  |  |
| C=CC(C)(CCC=C(C)C)OC(C)=O (stereo not given) [Linalyl acetate] |  | 39.3 ± 31 |  | 29.8 ± 30 |  | 56.9 ± 24 | 38.1 ± 31 | 31.5 ± 30 | 44.5 ± 21 |  |  |  |
| CCCCCCCC [Octane] | 46.3 ± 29 | 27.3 ± 26 | 59.6 ± 31 | 13.9 ± 20 | 53.2 ± 25 | 44.1 ± 25 |  |  |  |  |  |  |
| C/C=C/c1ccc2c(c1)OCO2 [Isosafrole] |  | 56.4 ± 30 |  | 44.7 ± 30 |  | 59.6 ± 24 | 29 ± 28 | 14.4 ± 15 | 54.6 ± 18 |  |  |  |
| CC(=O)c1ccccc1O [2-Hydroxyacetophenone] |  | 49.6 ± 33 |  | 80.7 ± 17 |  | 29.5 ± 25 | 43.8 ± 29 | 48.5 ± 30 | 39.2 ± 24 |  |  |  |
| CC(C)CC(=O)O[C@@H]1C[C@H](C)CC[C@H]1C(C)C [Menthyl isovalerate] |  | 39.5 ± 27 |  | 33.9 ± 28 |  | 56.9 ± 25 | 35 ± 33 | 18.6 ± 24 | 49.4 ± 24 |  |  |  |
| CC(C)CCCC(C)CCO (stereo not given) [3,7-Dimethyl-1-octanol] |  | 57.6 ± 30 |  | 74.7 ± 22 |  | 40.2 ± 28 | 40.5 ± 26 | 24.2 ± 26 | 43.8 ± 19 |  |  |  |
| COC(=O)CCSC [Methyl 3-(methylthio)propionate] |  |  |  |  |  |  | 31 ± 25 | 25.6 ± 28 | 41 ± 21 | 40.3 ± 32 | 27.7 ± 30 | 43.2 ± 26 |
| NC(Cc1ccccc1)C(=O)O (racemic) [DL-Phenylalanine] | 43.4 ± 31 | 41.9 ± 29 | 70 ± 24 | 35.2 ± 29 | 38.2 ± 26 | 51.4 ± 27 |  |  |  |  |  |  |
| CC(C)=CCCC(C)=CC#N [3,7-Dimethyl-2,6-octadienenitrile] |  | 67.1 ± 29 |  | 75.1 ± 22 |  | 64.5 ± 28 | 48.4 ± 34 | 46.2 ± 28 | 60.3 ± 23 |  |  |  |
| CCc1nccnc1CC [2,3-Diethylpyrazine] |  |  |  |  |  |  | 55 ± 28 | 70.7 ± 26 | 34.3 ± 24 | 44.9 ± 28 | 30.4 ± 29 | 40.3 ± 18 |
